Values quoted from earlier work as cited in EP0137640A1, “Chain extended analogues of methotrexate and aminopterin” (DANA-FARBER CANCER INSTITUTE, INC., priority 1983, dated 1985).

Test system: carboxypeptidase Gl
Settings: as described by Chabner et al. (1972) Nature, 239, 395

CN(Cc1cnc2nc(N)nc(N)c2n1)c1ccc(C(=O)N[C@@H](CCC(=O)O)C(=O)O)cc1 [MTX, 4-amino-4-deoxy-N^10-methyl-pteroylglutamic acid]
cleavage by carboxypeptidase Gl: rapidly cleaved
